Tests used:
Format in all cases: binding
[1] = molecular target: T1, IPR (isopiperitenone reductase) (Mentha x piperita, UniProt Q6WAU1); assay: X-ray crystal structure; conditions: oxidised cofactor scavenged from expression host
T1 construct: recombinant; scavenged NADP+ from host cells; catalytic Glu238; construct details only in supplement

[2] = molecular target: T2, MNMR ((−)‐menthone:(+)‐neomenthol reductase) (Mentha x piperita, UniProt Q06ZW2); assay: X-ray crystal structure, crystal soaking; conditions: crystals soaked with NADP+
T2 construct: recombinant; catalytic Tyr244; construct details only in supplement

[3] = molecular target: T1, IPR (isopiperitenone reductase); assay: X-ray crystal structure of complex; conditions: non-substrate, bound in a non-active conformation; with NADP+

T1 sequence (Q6WAU1 whole entry): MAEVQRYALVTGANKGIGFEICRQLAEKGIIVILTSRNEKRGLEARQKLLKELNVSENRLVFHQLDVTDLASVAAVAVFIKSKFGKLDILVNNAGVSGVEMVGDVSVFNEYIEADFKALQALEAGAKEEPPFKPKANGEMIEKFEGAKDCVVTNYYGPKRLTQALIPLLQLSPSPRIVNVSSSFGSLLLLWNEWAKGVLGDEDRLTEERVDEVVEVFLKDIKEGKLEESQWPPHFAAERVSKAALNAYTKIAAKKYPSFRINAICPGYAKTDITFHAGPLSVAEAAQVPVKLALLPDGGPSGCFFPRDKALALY
T2 sequence (Q06ZW2 entry or part of it): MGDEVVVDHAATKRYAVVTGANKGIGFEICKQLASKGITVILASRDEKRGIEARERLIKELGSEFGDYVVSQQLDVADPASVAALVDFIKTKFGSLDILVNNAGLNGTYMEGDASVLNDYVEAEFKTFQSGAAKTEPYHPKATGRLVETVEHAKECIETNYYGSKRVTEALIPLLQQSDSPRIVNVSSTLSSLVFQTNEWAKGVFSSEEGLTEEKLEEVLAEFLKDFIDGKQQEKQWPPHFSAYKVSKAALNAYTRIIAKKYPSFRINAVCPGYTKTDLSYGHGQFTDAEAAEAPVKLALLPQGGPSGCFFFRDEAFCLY

| SMILES | X-ray crystal structure [1] | X-ray crystal structure, crystal soaking [2] | X-ray crystal structure of complex [3] |
| --- | --- | --- | --- |
| NC(=O)c1ccc[n+]([C@@H]2O[C@H](COP(=O)(O)OP(=O)(O)OC[C@H]3O[C@@H](n4cnc5c(N)ncnc54)[C@H](OP(=O)(O)O)[C@@H]3O)[C@@H](O)[C@H]2O)c1 [NADP+] | presence of clear density in the F0−Fc map for NADP^+ | A coenzyme‐bound MNMR structure was obtained by soaking crystals with NADP^+ |  |
| CC1=C(C=O)C(C)(C)CCC1 [β‐cyclocitral] |  |  | The IPR–β‐cyclocitral co‐crystal structure shows the ligand binds in a non‐active conformation |

From PMC4988501, “Pinpointing a Mechanistic Switch Between Ketoreduction and “Ene” Reduction in Short‐Chain Dehydrogenases/Reductases” (Angewandte Chemie (International Ed. in English), 2016)
